Experiments:
Test in all cases: NCI 60 cell one-dose screening (SRB)
Type in all cases: cell-based
BT-549 = settings: Homo sapiens; BT-549, Breast Cancer; single dose 10 µM, 48 h; read-out: Percentage of cellular growth inhibition
In short: (§1)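 For suspension lines such as SR, settled cells were fixed with 16% final TCA; adherent lines used 10% TCA. All lines received 10 µM compound for 48 h at 37 °C before SRB staining, and percent growth inhibition relative to control was reported.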

CAKI-1 = settings: Homo sapiens; CAKI-1, Renal Cancer; single dose 10 µM, 48 h; read-out: Percentage of cellular growth inhibition
In short: as §1

CCRF-CEM = settings: Homo sapiens, Leukemia, single dose 10 µM, 48 h, read-out: Percentage of cellular growth inhibition
In short: as §1

EKVX = settings: Homo sapiens, Non-Small Cell Lung Cancer, single dose 10 µM, 48 h, read-out: Percentage of cellular growth inhibition
In short: as §1

HCT-15 = settings: Homo sapiens; HCT-15, Colon Cancer; single dose 10 µM, 48 h; read-out: Percentage of cellular growth inhibition
In short: as §1

HL-60(TB) = settings: Homo sapiens, Leukemia, single dose 10 µM, 48 h, read-out: Percentage of cellular growth inhibition
In short: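 Single 10 µM final dose, 48 h at 37 °C in RPMI 1640 with 5% FBS, cells plated 24 h before dosing. TCA fixation (10% adherent, 16% suspension), SRB staining, absorbance at 515 nm. Growth percentage versus no-drug control with time-zero correction, reported as inhibition % (100 minus growth).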

HS 578T = settings: Homo sapiens, Breast Cancer, single dose 10 µM, 48 h, read-out: Percentage of cellular growth inhibition
In short: as §1

HT29 = settings: Homo sapiens, HT-29; HT29, Colon Cancer; single dose 10 µM, 48 h; read-out: Percentage of cellular growth inhibition
In short: as §1

K-562 = settings: Homo sapiens, K562; K-562, Leukemia; single dose 10 µM, 48 h; read-out: Percentage of cellular growth inhibition
In short: as §1

KM12 = settings: Homo sapiens; KM12, Colon Cancer; single dose 10 µM, 48 h; read-out: Percentage of cellular growth inhibition
In short: as §1

MDA-MB-231/ATCC = settings: Homo sapiens, Breast Cancer, single dose 10 µM, 48 h, read-out: Percentage of cellular growth inhibition
In short: as §1

MDA-MB-435 = settings: Homo sapiens; MDA-MB-435, Melanoma; single dose 10 µM, 48 h; read-out: Percentage of cellular growth inhibition
In short: as §1

MDA-MB-468 = settings: Homo sapiens; MDA-MB-468, Breast Cancer; single dose 10 µM, 48 h; read-out: Percentage of cellular growth inhibition
In short: as §1

MOLT-4 = settings: Homo sapiens; MOLT-4, Leukemia; single dose 10 µM, 48 h; read-out: Percentage of cellular growth inhibition
In short: as §1

NCI-H460 = settings: Homo sapiens; NCI-H460, Non-Small Cell Lung Cancer; single dose 10 µM, 48 h; read-out: Percentage of cellular growth inhibition
In short: as §1

OVCAR-8 = settings: Homo sapiens; OVCAR-8, Ovarian Cancer; single dose 10 µM, 48 h; read-out: Percentage of cellular growth inhibition
In short: as §1

PC-3 = settings: Homo sapiens; PC-3, Prostate Cancer; single dose 10 µM, 48 h; read-out: Percentage of cellular growth inhibition
In short: as §1

RPMI-8226 = settings: Homo sapiens; RPMI-8226, Leukemia; single dose 10 µM, 48 h; read-out: Percentage of cellular growth inhibition
In short: as §1

SF-295 = settings: Homo sapiens; SF-295, CNS Cancer; single dose 10 µM, 48 h; read-out: Percentage of cellular growth inhibition
In short: as §1

SN12C = settings: Homo sapiens, Renal Cancer, single dose 10 µM, 48 h, read-out: Percentage of cellular growth inhibition
In short: as §1

SW-620 = settings: Homo sapiens; SW-620, Colon Cancer; single dose 10 µM, 48 h; read-out: Percentage of cellular growth inhibition
In short: as §1

Row | SMILES | inhibition at 10 µM (BT-549) [%] | inhibition at 10 µM (CAKI-1) [%] | inhibition at 10 µM (CCRF-CEM) [%] | inhibition at 10 µM (EKVX) [%] | inhibition at 10 µM (HCT-15) [%] | inhibition at 10 µM (HL-60(TB)) [%] | inhibition at 10 µM (HS 578T) [%] | inhibition at 10 µM (HT29) [%] | inhibition at 10 µM (K-562) [%] | inhibition at 10 µM (KM12) [%] | inhibition at 10 µM (MDA-MB-231/ATCC) [%] | inhibition at 10 µM (MDA-MB-435) [%] | inhibition at 10 µM (MDA-MB-468) [%] | inhibition at 10 µM (MOLT-4) [%] | inhibition at 10 µM (NCI-H460) [%] | inhibition at 10 µM (OVCAR-8) [%] | inhibition at 10 µM (PC-3) [%] | inhibition at 10 µM (RPMI-8226) [%] | inhibition at 10 µM (SF-295) [%] | inhibition at 10 µM (SN12C) [%] | further results
1 | CC(=O)c1sc(Nc2cccc(Nc3nc(C)c(C(C)=O)s3)c2)nc1C [3b, 1,1’-(2,2’-(1,3-Phenylenebis(azanediyl))bis(4-methylthiazole-5,2-diyl))diethanone] | 53.8 | 71.9 | 38.8 | 31.2 | 55.1 | 65.8 | 47.3 | 30 | 59.1 | 39.8 | 19.3 | 40.9 | 45 | 61.7 | 54.4 | 56.6 | 48.7 | 32.1 | 13.5 | 45 | inhibition at 10 µM (SW-620): 37.5%
2 | Clc1ccc(-c2cs/c(=N\c3ccccc3)n2-c2cccc(-n3c(-c4ccc(Cl)cc4)cs/c3=N\c3ccccc3)c2)cc1 [8c, N,N’-(3,3’-(1,3-phenylene)bis(4–(4-chlorophenyl)thiazole-3(3H)-yl-2(3H)-ylidene))dianiline] | -15.5 | 9 | 32.6 | 4.9 | -1.3 | 41.8 | 10.4 | 12.4 | 11.7 | 8.8 | -4.5 | 5.4 | 35.4 | 12.3 | 0.1 | 7.9 | 28.9 | 37 | -17.9 | 2.3 | inhibition at 10 µM (SW-620): 36.7%
3 | CCOC(=O)c1sc(Nc2cccc(Nc3nc(C)c(C(=O)OCC)s3)c2)nc1C [3c, Diethyl 2,2’-(1,3-phenylenebis(azanediyl))bis(4-methylthiazole-5-carboxylate)] | 26.3 | 21.9 | 11 | 38.6 | 20.9 | 22.7 | 14.7 | -4.7 | 39.9 | 12.2 | 20.8 | 17.9 | 52.4 | 29.2 | 23.5 | 17.3 | 22.9 | 37.7 | 33.8 | 11.8 | inhibition at 10 µM (SW-620): 11.4%
4 | c1ccc(-c2csc(Nc3cccc(Nc4nc(-c5ccccc5)cs4)c3)n2)cc1 [6a, N^1,N^3-bis(4-phenylthiazol-2-yl)benzene-1,3-diamine] | 68.3 | 65.1 | 61.4 | 62.3 | 69.5 | 34.1 | 43.5 | 60.6 | 73.4 | 98.9 | 52 | 55.3 | 60.8 | 86.3 | 73.1 | 60.1 | 67.9 | 50.7 | 62.4 | 56.6 | inhibition at 10 µM (SW-620): 33.8%
5 | NC(=S)Nc1cccc(NC(N)=S)c1 [compound 2, 1,1′-(1,3-phenylene)bis(thiourea)] | -14.6 | 20.3 | 3.6 | -1.3 | 4.9 | 0.9 | -5 | -13.3 | 90.7 | 12.4 | 10.3 | 2.7 | 13.5 | 10.3 | -9.7 | 6 | -2.4 | -9.5 | 9.8 | 18.1 | inhibition at 10 µM (SW-620): -6.9%
6 | Clc1ccc(-c2csc(Nc3cccc(Nc4nc(-c5ccc(Cl)cc5)cs4)c3)n2)cc1 [6c, N^1,N^3-bis(4–(4-chlorophenyl)thiazol-2-yl)benzene-1,3-diamine] | -6.1 | 43 | 10.4 | 12.4 | 7.1 | 14.6 | 29.5 | -10.5 | 5.8 | -1.4 | 24.9 | -7.1 | 13.4 | 25.4 | -2.1 | 7.7 | 22.2 | 14.8 | 4 | 1 | inhibition at 10 µM (SW-620): 0.4%
7 | Fc1ccc(-c2csc(Nc3cccc(Nc4nc(-c5ccc(F)cc5)cs4)c3)n2)cc1 [6b, N^1,N^3-bis(4–(4-fluorophenyl)thiazol-2-yl)benzene-1,3-diamine] | 36 | 53.6 | 40.9 | 60.2 | 47.5 | 25.7 | 30.7 | 37.7 | 64 | 62.4 | 35.4 | 36.9 | 61.4 | 53.6 | 59.6 | 32.1 | 64.8 | 50.5 | 9.6 | 52.8 | inhibition at 10 µM (SW-620): 29.7%
8 | CCOc1ccc(/N=N/c2sc(Nc3cccc(Nc4nc(C)c(/N=N/c5ccc(OCC)cc5)s4)c3)nc2C)cc1 [5b, N^1,N^3-bis(5-((4-ethoxyphenyl)diazinyl)-4-methylthiazol-2-yl)benzene-1,3-diamine] | -3.7 | 8.3 | -13.9 | 6.5 | 8.4 | 8.9 | 2.2 | 0.2 | -0.4 | -0.8 | 6.7 | 1.6 | 4.3 | -2.2 | -6.8 | -4 | 6.2 | -7.2 | 4.4 | 4.7 | inhibition at 10 µM (SW-620): -0.3%

From publication PMC9897788, “Design, synthesis and cytotoxic evaluation of novel bis-thiazole derivatives as preferential Pim1 kinase inhibitors with in vivo and in silico study” (Journal of Enzyme Inhibition and Medicinal Chemistry, 2023)
